Biological target: KRasG12D (Homo sapiens, UniProt P01116, G12D)
Experiment: KRAS inhibitory activity test, TR-FRET (inhibition of binding of KRasG12D to GTP, SOS/GTP nucleotide exchange)
Format: biochemical
Conditions: read-out: IC50 values of the compounds for inhibiting KRAS enzymes, G12D
Procedure: • 1. […] Reagent Preparation: • a. Storage Reagents:
Prepare a 1L solution by mixing 20mL of 1000mM HEPES, 20mL of 500mM EDTA, 10mL of 5M sodium chloride, 0.1mL of 100% Tween 20, and 949.9mL of water. Sterilize by filtration and store at 4°C.
Prepare a 1L solution by mixing 20mL of 1000mM HEPES, 10mL of 1000mM magnesium chloride, 30mL of 5M sodium chloride, 0.05mL of 100% Tween 20, and 939.95mL of water. Sterilize by filtration and store at 4°C. 3) KRAS/Bodipy GDP/Tb-SA Mixture: Mix 9.5 µL of 95 µM KRasG12D protein with 440.5 µL of KRAS nucleotide exchange buffer. Incubate at room temperature for 1 hour. Then, mix with 8.4 µL of 17.9 µM Tb-SA, 1.8 µL of 5 mM Bodipy GDP, and 9539.8 µL of KRAS experimental buffer to prepare […]. After mixing, incubate at room temperature for 6 hours and store at -80°C.
• 1) KRAS Enzyme Solution: Mix 73.3 µL of KRAS/Bodipy GDP/Tb-SA mixture with 2126.7 µL of KRAS experimental buffer to prepare a 2200 µL solution. • 2) SOS/GTP Mixture
c. Experimental Procedure: Mix 1.59 µL of 166 µM SOS protein with 198 µL of 100 mM... GTP and 0.41 µL KRAS buffer were prepared to a 2200 µL solution. The stock solution concentration of the control compound was 1 mM, and the stock solution concentration of the test compound was 10 mM. 9 µL of the control compound and the test compound were transferred to a 384-LDV plate. The compound on the LDV plate was 3-fold diluted 10-point using Bravo. 9 nL of the compound on the LDV plate was transferred to the experimental plate using ECHO. 3 µL of a 3 nM Kras/0.5 nM TB-SA/30 nM BodipyGDP mixture and 3 µL of Ras buffer were added to each well of the experimental plate using a Dragonfly autopilot. The plate was centrifuged at 1000 rpm for 1 minute. The plate was incubated at room temperature for 1 hour. 3 µL of 120 nM SOS/9 mM KRAS buffer was added to each well of the experimental plate using a Dragonfly autopilot. The […] was centrifuged at 1000 rpm for 1 minute; the plate was incubated at room temperature for 1 hour; the plate was read and the data were recorded using Envision; the data were analyzed using Excel and Xlfit to calculate the IC50of the test compound. "++++" indicates IC50≤ 10 nM; "+++" indicates 10 nM < IC50≤ 100 nM; "++" indicates 100 nM < IC50≤ 2000 nM; "+" indicates 2000 nM < IC50.

| Compound | IC50 |
| --- | --- |
| Cc1cc(O)c(F)c([C@H]2Cc3nc(OC[C@@]45CCCN4C[C@H](F)C5)nc(N4CCC[C@@](C)(O)C4)c3CS2(=O)=O)c1C(F)(F)F [Compound 6B, (7R)-7-(2-fluoro-3-hydroxy-5-methyl-6-(trifluoromethyl)phenyl)-2-(((2R,7AS)-2-fluorotetrahydro-1H-pyrrolazin-7a(5H)-yl)methoxy)-4-((R)-3-hydroxy-3-methylpiperidin-1-yl)-7,8-dihydro-5H-thiopyrano[4,3-d]pyrimidine-6,6-dioxide] | 10 to 100 nM |
| Cc1cc(N)cc([C@@H]2Cc3nc(OC[C@@]45CCCN4C/C(=C\F)C5)nc(N4CC5CCC(C4)N5)c3CS2(=O)=O)c1C(F)(F)F [Compound 39A] | ≤ 10 nM |
| Cc1cc(N)c(F)c([C@@H]2Cc3nc(OC[C@@]45CCCN4C[C@H](F)C5)nc(N4C[C@H]5CC[C@@H](C4)N5)c3CS2(=O)=O)c1C(F)(F)F [Compound 1A, (7S)-7-(3-amino-2-fluoro-5-methyl-6-(trifluoromethyl)phenyl)-4-((1R,5S)-3,8-diazabicyclo[3.2.1]octane-3-yl)-2-(((2R,7AS)-2-fluorotetrahydro-1H-pyrrolazin-7a(5H)-yl)methoxy)-7,8-dihydro-5H-thiopyrano[4,3-d]pyrimidine 6,6-Dioxide] | ≤ 10 nM |
| Cc1cc(O)nc([C@@H]2Cc3nc(OC[C@@]45CCCN4C[C@H](F)C5)nc(N4C[C@H]5CC[C@@H](C4)N5)c3CS2(=O)=O)c1C(F)(F)F [Compound 4A, (7S)-4-((1R,5S)-3,8-diazabicyclo[3.2.1]octane-3-yl)-2-(((2R,7AS)-2-fluorotetrahydro-1H-pyrrolazin-7a(5H)-yl)methoxy)-7-(6-hydroxy-4-methyl-3-(trifluoromethyl)pyridin-2-yl)-7,8-dihydro-5H-thiopyrano[4,3-d]pyrimidine-6,6-dioxide] | ≤ 10 nM |
| Cc1cc(N)nc([C@@H]2Cc3nc(OC[C@@]45CCCN4C[C@H](F)C5)nc(N4C[C@H]5CC[C@@H](C4)N5)c3CS2(=O)=O)c1C(F)(F)F [Compound 3A, (7S)-7-(6-amino-4-methyl-3-(trifluoromethyl)pyridin-2-yl)-4-((1R,5S)-3,8-diazabicyclo[3.2.1]octane-3-yl)-2-(((2R,7AS)-2-fluorotetrahydro-1H-pyrrolazin-7a(5H)-yl)methoxy)-7,8-dihydro-5H-thiopyrano[4,3-d]pyrimidine 6,6-Dioxide] | 10 to 100 nM |
| CC#Cc1cc(N)cc([C@@H]2Cc3nc(OC[C@@]45CCCN4CC(=C(F)F)C5)nc(N4CC5CCC(C4)N5)c3CS2(=O)=O)c1C(F)(F)F [Compound 31A] | ≤ 10 nM |
| Cc1cc(N)c(F)c([C@@H]2Cc3nc(OC[C@@]45CCCN4CC(=C(F)F)C5)nc(N4CC5CCC(C4)N5)c3CS2(=O)=O)c1C(F)(F)F [Compound 10A, (7S)-7-(3-amino-2-fluoro-5-methyl-6-(trifluoromethyl)phenyl)-4-(3,8-diazabicyclo[3. 2.1]octane-3-yl)-2-(((S)-2-(difluoromethylene)tetrahydro-1H-pyrrolazin-7a(5H)-yl)methoxy)-7,8-dihydro-5H-thiopyrano[4,3-d]pyrimidine-6,6-dioxide] | ≤ 10 nM |
| 7-(3-amino-2-fluoro-5-methyl-6-(trifluoromethyl)phenyl)-4-(3,8-diazabicyclo[3.2.1]o ctane-3-yl)-2-(((S)-2-(difluoromethylene)tetrahydro-1H-pyrrolazin-7a(5H)-yl)methox y)-7,8-dihydro-5H-thiopyrano[4,3-d]pyrimidine-6,6-dioxide [Compound 9] | ≤ 10 nM |
| Cc1cc(N)c(F)c([C@@H]2Cc3nc(OC[C@@]45CCCN4CC(=C(F)F)C5)nc(N4CC5CCC(C4)N5)c3CS2(=O)=O)c1C(F)(F)F [Compound 9A, (7S)-7-(3-amino-2-fluoro-5-methyl-6-(trifluoromethyl)phenyl)-4-(3,8-diazabicyclo[3. 2.1]octane-3-yl)-2-(((S)-2-(difluoromethylene)tetrahydro-1H-pyrrolazin-7a(5H)-yl)methoxy)-7,8-dihydro-5H-thiopyrano[4,3-d]pyrimidine-6,6-dioxide] | ≤ 10 nM |
| CC#Cc1cc(N)cc(C2Cc3nc(OC[C@@]45CCCN4C/C(=C\F)C5)nc(N4CC5CCC(C4)N5)c3CS2(=O)=O)c1C(F)(F)F (some centres unmarked) [Compound 32] | ≤ 10 nM |
| Cc1cc(O)c(F)c([C@H]2Cc3nc(OC[C@@]45CCCN4C[C@H](F)C5)nc(N4C[C@H]5CC[C@@H](C4)N5)c3CS2(=O)=O)c1C(F)(F)F [Compound 2B, (7R)-4-((1R,5S)-3,8-diazabicyclo[3.2.1]octane-3-yl)-7-(2-fluoro-3-hydroxy-5-methyl-6-(trifluoromethyl)phenyl)-2-(((2R,7AS)-2-fluorotetrahydro-1H-pyrrolazin-7a(5H)-yl)methoxy)-7,8-dihydro-5H-thiopyrano[4,3-d]pyrimidine-6,6-dioxide] | ≤ 10 nM |
| Cc1cc(N)c(F)c(C2Cc3nc(OC[C@@]45CCCN4CC(=CF)C5)nc(N4CC5CCC(C4)N5)c3CS2(=O)=O)c1C(F)(F)F (stereo partly drawn) [Compound 10, 7-7-(3-amino-2-fluoro-5-methyl-6-(trifluoromethyl)phenyl)-4-(3,8-diazabicyclo[3.2.1]octane-3-yl)-2-(((S)-2-(fluoromethylene)tetrahydro-1H-pyrrolazin-7a(5H)-yl)methoxy) -7,8-dihydro-5H-thiopyrano[4,3-d]pyrimidine-6,6-dioxide] | ≤ 10 nM |
| C=C1CN2CCC[C@@]2(COc2nc3c(c(N4CC5CCC(C4)N5)n2)CS(=O)(=O)[C@H](c2nc(N)cc(C)c2C(F)(F)F)C3)C1 [Compound 20A, (7S)-7-(6-amino-4-methyl-3-(trifluoromethyl)pyridin-2-yl)-2-(((S)-2-(methylene)tetra hydro-1H-pyrrolazin-7a(5H)-yl)methoxy)-4-(3,8-diazabicyclo[3.2.1]octane-3-yl)-7,8-dihydro-5H-thiopyrano[4,3-d]pyrimidine-6,6-dioxide] | ≤ 10 nM |
| Cc1cc(N)c(F)c([C@@H]2Cc3nc(OC[C@@]45CCCN4C[C@H](F)C5)nc(N4C[C@H]5CC[C@@H](C4)N5)c3CS2(=O)=O)c1C(F)(F)F [Compound 33A, (7S)-7-(3-amino-2-fluoro-5-methyl-6-(trifluoromethyl)phenyl)-4-((1R,5S)-3,8-diazabicyclo[3.2.1]octane-3-yl)-2-(((2R,7AS)-2-fluorotetrahydro-1H-pyrrolazin-7a(5H)-yl)methoxy)-7,8-dihydro-5H-thiopyrano[4,3-d]pyrimidine 6,6-Dioxide] | ≤ 10 nM |
| Cc1cc(N)c(F)c([C@@H]2Cc3nc(OC[C@@]45CCCN4C[C@H](F)C5)nc(N4C[C@H]5CC[C@@H](C4)N5)c3CS2(=O)=O)c1C(F)(F)F [Compound 38A, (7S)-7-(3-amino-2-fluoro-5-methyl-6-(trifluoromethyl)phenyl)-4-((1R,5S)-3,8-diazabicyclo[3.2.1]octane-3-yl)-2-(((2R,7AS)-2-fluorotetrahydro-1H-pyrrolazin-7a(5H)-yl)methoxy)-7,8-dihydro-5H-thiopyrano[4,3-d]pyrimidine 6,6-Dioxide] | ≤ 10 nM |
| Cc1cc(N)c(F)c([C@@H]2Cc3nc(OC[C@@]45CCCN4C[C@H](F)C5)nc(N4C[C@H]5CC[C@@H](C4)N5)c3CS2(=O)=O)c1C(F)(F)F [Compound 34A, (7S)-7-(3-amino-2-fluoro-5-methyl-6-(trifluoromethyl)phenyl)-4-((1R,5S)-3,8-diazabicyclo[3.2.1]octane-3-yl)-2-(((2R,7AS)-2-fluorotetrahydro-1H-pyrrolazin-7a(5H)-yl)methoxy)-7,8-dihydro-5H-thiopyrano[4,3-d]pyrimidine 6,6-Dioxide] | ≤ 10 nM |
| Cc1cc(N)c(F)c([C@@H]2Cc3nc(OC[C@@]45CCCN4C[C@H](F)C5)nc(N4C[C@H]5CC[C@@H](C4)N5)c3CS2(=O)=O)c1C(F)(F)F [Compound 36A, (7S)-7-(3-amino-2-fluoro-5-methyl-6-(trifluoromethyl)phenyl)-4-((1R,5S)-3,8-diazabicyclo[3.2.1]octane-3-yl)-2-(((2R,7AS)-2-fluorotetrahydro-1H-pyrrolazin-7a(5H)-yl)methoxy)-7,8-dihydro-5H-thiopyrano[4,3-d]pyrimidine 6,6-Dioxide] | ≤ 10 nM |
